pIC50, pKi: −log10 of the molar value. “Also recorded” adds a separate entry of the source. Where two headings read alike, the source gives them in different places.

Experiment [1] concerns Trypanosoma brucei procyclic parasites. In words: Effect of inhibitors on procyclic parasite growth (OD600, 48 h). In kind it is cell-based. The settings on record: 2.5 μM, 48 h, positive control. The procedure: Trypanosoma brucei procyclic parasites were grown in SDM-79 medium for 48 h until reaching a density of 5×10^6 cells/mL. Aliquots of 200 μl were distributed in 96-well plates and inhibitors were present at different final concentrations, as indicated in the figures. Nifurtimox (NFX) was used as a positive control in concentrations ranging from 0.25–25 μM. Culture density was checked by OD600 after 48 h.
In all experiments, triplicates were done for each condition tested and data significance was assessed by one-way Anova (GraphPad Prism5.03 version Software).

Experiment [2] deals with Trypanosoma brucei bloodstream parasites. Nature of the experiment: Effect of inhibitors on bloodstream parasite growth (Neubauer count, 24 h). The format is cell-based. The settings on record: Olaparib 29 nM, Rucaparib 1.5 μM, 3-AB 580 μM, Nifurtimox 2.5 μM. The procedure: Trypanosoma brucei bloodstream parasites were grown in HMI-11 medium for 24 h until reaching a density of 5×10^5 cells/mL. Aliquots of 100 μL were distributed in 96-well plates and inhibitors were added at different concentrations as indicated in the figures. After an incubation period of 24 h, the parasite number was counted with a Neubauer chamber. In all experiments, triplicates were done for each condition tested and data significance was assessed by one-way Anova (GraphPad Prism5.03 version Software).

A further experiment relates to hPARP-1. The settings on record: cited from earlier work.
For a further experiment, the system named is T. cruzi epimastigotes. The settings on record: cited from earlier work.
The target in the next experiment is TbPARP (Trypanosoma brucei brucei, UniProt Q0PW89). Nature of the experiment: biochemical. Conditions: 500 nM NAD+, 11 min at 25 °C, mean of three dose-response curves; for IC50: read-out: TbPARP pIC50 ± SEM (converted). The procedure: The optimal conditions for the activity of purified recombinant TbPARP, were determined by using a fluorometric activity assay. Incubation at 25 °C with shaking at 300 rpm was placed in propylene plates of 96 wells (Greiner BioOne). To terminate the reaction 2 M KOH (20 μL) and 20 % acetophenone in ethanol (20 μL) were added to each well. After incubating for 10 min at 4 °C, 90 μl of 88 % formic acid was added and incubated in an oven at 110 °C for 5 min. This reaction converts remaining NAD^+ to a fluorescent derivative. After incubation, the plate was allowed to cool down for 15 min and fluorescence was measured using excitation wavelengths of 372 nm and 444 nm for excitation and emission, respectively (Varioskan Flash 4.00.53, Thermo Scientific). Consumption of NAD^+ was detected by the decrease in fluorescence. Experiments were done in triplicates. The activity in control wells were kept under 25 % by optimizing the protein concentration and the incubation time, in order to get a robust signal without slowing down the enzyme activity.
A small set of cations was also tested in order to verify whether the enzymatic activity would depend on them. […] The final assay buffer was 100 mM Na2HPO4/NaH2PO4 pH 7, 500 μM TCEP, 1 μg/μL BSA, and 0.025 mg/mL activated DNA (Sigma Aldrich) and 500 nM NAD^+ (Sigma Aldrich).
Thirty - one compounds were tested. Dilutions from DMSO stocks were made (100 μM, 10 μM and 1 μM) and aliquots of those were used in the enzymatic reaction with 10-fold dilution. Inhibitor solutions were added in triplicates to the plate, followed by the addition of the NAD^+. Reactions were initiated by addition of TbPARP diluted in the same buffer (10 nM). The plate was incubated at 25 °C with shaking (300 rpm, Biosan PST-100 HL) for 45 min. […] To detect any potential fluorescence inherent in the compounds, control reactions were carried out separately with compound alone at 10 μM final concentration. The possible fluorescence quenching properties were controlled using wells within the experimental plate containing the compound with 500 nM NAD^+ in the assay buffer.
The IC50 value for 3-AB (Alexis Biochemicals) was also determined to be used as a reference. Briefly, reaction mix together with the inhibitors at half log dilutions were added to a 96-well plate (10 data points). Reactions were incubated for 11 min at 25 °C after initiating the reaction with the addition of 5 nM TbPARP at a final volume of 50 μL. Measurement of the remaining NAD^+ is described in section Screening of TbPARP inhibitors. All reactions were performed in triplicates and three independent dose response curves were fitted for each inhibitor. Control wells with only NAD^+ or NAD^+ and enzyme were used in the curve fitting, as detailed in our previous work.

Experiment [3] concerns wild type procyclic parasites. Nature of the experiment: Annexin V / PI flow cytometric cell death analysis. The format is cell-based, Trypanosoma brucei. Conditions: 10 μg/mL, apoptosis-like positive control. The procedure:
Parasites were treated with 1 mM H2O2 for different time intervals and the cell death pathway involved was assessed as it has been detailed in our previous work. The exposure of wild type procyclic parasites for 6 and 12 h to 10 μg/mL Concanavalin A type IV (Sigma-Aldrich) confirmed the apoptosis-like death pathway (positive control). […] Results were analyzed with Cyflogic v 1.2.1 software.

The test system of experiment [4] is PAR formation in procyclic T. brucei. In words: In culture inhibition of PAR formation after H2O2, Dot blot, procyclic form. In kind it is cell-based, Trypanosoma brucei. The settings on record: for inhibition of PAR formation in culture, procyclic form: inhibitor at 10-fold in vitro IC50 (0.23 μM 4-ANI; 65 nM EB-47; 29 nM Olaparib; 1.5 μM Rucaparib), 30 min preincubation, 500 μM H2O2 10 min; for reduction of PAR synthesis in the parasite: discussion, parasite form not given. The procedure:
(§1) T. brucei procyclic strain 29–13 [29] was cultured at 28 °C in SDM-79 (Bioscience) containing 10 % (v/v) FCS and 0002 % hemin. T. brucei bloodstream strain 427 90-13 [29] was cultured at 37 °C in HMI-11 (Iscore’s Modified Dulbecco’s Medium (Invitrogen), 100 mg/L sodium pyruvate, 136.1 mg/L hypoxantine, 38.7 mg/L thymidine, 28.22 mg/L bathocuproinedisulfonic acid, 181.8 mg/L L-cysteine, 3.024 mg/L sodium carbonate, 196 μM β-mercaptoethanol) containing FCS (10 % v/v). Parasite viability was analyzed by microscopy.
(§2) For in culture inhibition assays, parasites of the procyclic form of Trypanosoma brucei were grown for 48 h up to a density of 5×10^6 parasites/mL. Parasites of the bloodstream form were grown for 24 h up to a density of 5×10^5 parasites/mL. In both cases, cells were harvested and preincubated for 30 min or 10 min in PBS-Glucose 2 % with inhibitors added, after which the parasites were treated with 500 μM or 250 μM hydrogen peroxide for procyclic and bloodstream forms, respectively, for 10 min.

Experiment [5] has as its system T. brucei procyclic parasites. Nature of the experiment: Cell survival (motility) after H2O2 treatment with PARP inhibitor. The settings on record: 29 nM inhibitor.
Protocol: Cell survival was determined by incubating 500 μL of 1 × 10^6 parasites/mL culture in 24-well cell culture plates (Cellstar) for 6 h with different concentrations of H2O2 (30 μM, 95 μM, 300 μM and 950 μM) and counting motile parasites over the total number using a Neubauer chamber. Each condition was tested in triplicates. Statistical significance was assessed with two-way Anova followed by Bonferroni test (version 5.03 of GraphPad Prism for Windows).
The subject of experiment [6] is PAR formation in bloodstream T. brucei. Nature of the experiment: In culture inhibition of PAR formation after H2O2, Dot blot, bloodstream form. The settings on record: inhibitor at 10-fold in vitro IC50 (29 nM Olaparib; 1.5 μM Rucaparib), 10 min preincubation, 250 μM H2O2. In kind it is cell-based, Trypanosoma brucei. The procedure: as §1, §2
Experiment [7] deals with RNAi-TbPARP procyclic parasites. In words: Growth of Tet induced RNAi-TbPARP procyclic parasites with inhibitor. In kind it is cell-based, Trypanosoma brucei. Conditions: 290 nM inhibitor. An excerpt:
A fragment of the TbPARP cDNA (nucleotides 1030 to 1445) [GenBank:DQ679800, Tb927.5.3050] and a fragment of the TbPARG cDNA (nucleotides 593 to 979) [Tb927.9.12810] were sub-cloned into the tetracycline-inducible expression vector p2T7^TI-177 [30] to down-regulate the genes of interest. In addition, whole TbPARP cDNA sequence was sub-cloned into the expression vector p2216 [31] (PCR primer sequences available upon request) to over-express the PARP-eYFP fusion gene.
Not I-linearized RNAi-TbPARP and RNAi-TbPARG constructs and the over-expression construct (10 μg) were transfected into procyclic parasites by electroporation, as described by Downey et al.. The selection of the transfectants was carried out with 20 μg/mL zeocin, and dsRNA and over-expression of the fusion protein was induced with 1.0 μg/mL tetracycline for 3 days.

Setting [8] is: 5 nM TbPARP, read-out: TbPARP IC50.

Chain of TbPARP (Q0PW89 entry or part of it): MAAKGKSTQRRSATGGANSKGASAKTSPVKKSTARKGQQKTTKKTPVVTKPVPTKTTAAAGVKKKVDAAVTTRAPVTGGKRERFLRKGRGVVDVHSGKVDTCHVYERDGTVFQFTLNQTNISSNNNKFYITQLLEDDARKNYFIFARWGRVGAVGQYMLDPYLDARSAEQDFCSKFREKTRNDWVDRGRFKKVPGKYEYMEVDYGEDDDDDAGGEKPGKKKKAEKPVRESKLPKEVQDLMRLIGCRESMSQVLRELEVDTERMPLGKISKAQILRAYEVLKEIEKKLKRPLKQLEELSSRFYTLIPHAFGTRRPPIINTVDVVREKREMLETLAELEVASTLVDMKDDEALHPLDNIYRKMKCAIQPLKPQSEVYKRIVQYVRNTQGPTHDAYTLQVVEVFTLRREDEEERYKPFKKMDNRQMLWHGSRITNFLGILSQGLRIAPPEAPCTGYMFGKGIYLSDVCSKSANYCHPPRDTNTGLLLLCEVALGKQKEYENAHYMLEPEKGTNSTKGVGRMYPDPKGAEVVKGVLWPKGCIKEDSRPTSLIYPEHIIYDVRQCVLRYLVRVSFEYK

Take `CC1CS(=O)(=O)CCN1/N=C/c1ccc([N+](=O)[O-])o1` (stereo not shown) [Nifurtimox]: in experiment [1], the “effect on procyclic parasite growth” value is “slowed down procyclic parasite growth”. In experiment [2], the “effect on bloodstream parasite growth” value is listed as “did provoke a decrease on bloodstream parasite growth”.

As for `NC(=O)c1cccc(N)c1` [Compound 3-AB, 3-aminobenzamide], the pIC50 in the experiment with hPARP-1 (reported for human PARP-1) is 4.66; at TbPARP (setting [8]), 4.24. Further, in the experiment with T. cruzi epimastigotes (reported earlier, reference not given), the “effect on T. cruzi growth” value is listed as “reported to diminish T. cruzi growth”. In experiment [2], the “effect on bloodstream parasite growth” value is listed as “did provoke a decrease on bloodstream parasite growth”. The IC50 on TbPARP ([…] nM TbPARP) was 57.5 µM.

As for `CN(C)CC(=O)Nc1ccc2[nH]c(=O)c3ccccc3c2c1` [PJ-34, 2-(dimethylamino)-N-(6-oxo-5,6-dihydrophenanthridin-2-yl)acetamide], the negative logarithm of the IC50 (pIC50) at TbPARP (setting [8]) was 6.24. Besides, at TbPARP ([…] nM TbPARP), the IC50 is 0.589 µM.

On to Concanavalin A, for which the “cell death pattern (Annexin V incorporation)” value in [3] is “typical apoptosis response with an increment in Annexin incorporation”.

For `O=C(c1cc(Cc2n[nH]c(=O)c3ccccc23)ccc1F)N1CCN(C(=O)C2CC2)CC1` [Olaparib, 4-({3-[(4-cyclopropanecarbonylpiperazin-1-yl)carbonyl]-4-fluorophenyl}methyl)-1,2-dihydrophthalazin-1-one], the “inhibition of PAR formation in culture, procyclic form” value (“inhibition … procyclic form” for short) in [4] is reported as “inhibited PAR formation in culture; also recorded: able to reduce PAR formation”. In the experiment with T. cruzi epimastigotes (25 nM), the “decrease in growth of T. cruzi epimastigotes in culture” value is recorded as 50%. The “parasite viability (motility) in presence versus absence of inhibitor” value is “no difference in parasite viability” in experiment [5] (30 μM H2O2, 6 h) and “reduced the loss of viability induced by the oxidant” in [5] (95 μM H2O2, 6 h). In addition, in [5] (300 μM H2O2, 6 h, not statistically significant), the “parasite motility in presence versus absence of inhibitor” value was “slight protective effect”. For the same compound, the “inhibition of PAR formation in culture, bloodstream form” value in experiment [6] was “able to inhibit PAR formations in culture; also recorded: able to reduce PAR formation”. Besides, the “effect on bloodstream parasite growth” value in [2] is “not able to significantly affect T. brucei growth or survival”. The “growth rate of Tet induced RNAi-TbPARP procyclic parasites” value in [7] is “no change in growth rate”. Also, the pIC50 at TbPARP (setting [8]) was 8.54. The IC50 at TbPARP ([…] nM TbPARP) is 0.00295 µM.

As to `Nc1ncnc2c1ncn2[C@@H]1O[C@H](C(=O)N2CCN(CC(=O)Nc3cccc4c3CNC4=O)CC2)[C@@H](O)[C@H]1O` [EB-47, 2-(4-{[(2S,3S,4R,5R)-5-(6-amino-9H-purin-9-yl)-3,4-dihydroxyoxolan-2-yl]carbonyl}piperazin-1-yl)-N-(1-oxo-2,3-dihydro-1H-isoindol-4-yl)acetamide], in experiment [4], the “reduction of PAR synthesis in the parasite” value is given as “not able to reduce PAR synthesis in the parasite” and the “inhibition … procyclic form” value was “did not inhibit TbPARP at all”. For the same compound, the pIC50 on TbPARP (setting [8]) was 8.19. In addition, the IC50 on TbPARP ([…] nM TbPARP) was 0.00646 µM.

`O=c1[nH]ccc2c(O)cccc12` [1,5-Isoquinolinediol, 5-hydroxy-1,2-dihydroisoquinolin-1-one]: the pIC50 in the experiment on hPARP-1 (reported for human PARP-1) was 6.41; on TbPARP (setting [8]) it was 5.92. At TbPARP ([…] nM TbPARP), the IC50 was 1.23 µM.

Regarding `Oc1nc(C2CC2)nc2c1CSCC2` [RF03876, 2-cyclopropyl-5H,7H,8H-thiopyrano[4,3-d]pyrimidin-4-ol], the pIC50 at TbPARP (setting [8]) was 5.96. The IC50 on TbPARP ([…] nM TbPARP) was 1.15 µM.

For `C[C@]1(c2nc3c(C(N)=O)cccc3[nH]2)CCCN1` [Veliparib, 2-[(2R)-2-methylpyrrolidin-2-yl]-1H-1,3-benzodiazole-4-carboxamide], the pKi at hPARP-1 was 8.30. For the same compound, at TbPARP (setting [8]), the negative-log IC50 (pIC50) is 7.31. At TbPARP ([…] nM TbPARP), the IC50 is 0.049 µM.

For the compound `Nc1ccc2c3c(cccc13)C(=O)NC2=O` [Compound 4-ANI, 8-amino-3-azatricyclo[7.3.1.0^{5,13}]trideca-1(12),5,7,9(13),10-pentaene-2,4-dione], in [4], the “reduction of PAR synthesis in the parasite” value was “not able to reduce PAR synthesis in the parasite” and the “inhibition … procyclic form” value is “scarcely inhibited the enzyme”. Moreover, the negative-log IC50 (pIC50) in the experiment with hPARP-1 was 6.74. The pIC50 on TbPARP (setting [8]) was 7.64. Besides, the IC50 at TbPARP ([…] nM TbPARP) is 0.0229 µM.

On to `Cc1nc(=O)c2cccc(O)c2[nH]1` [NU1025, 8-hydroxy-2-methyl-1,4-dihydroquinazolin-4-one], for which the pIC50 in the experiment with hPARP-1 (reported for human PARP-1) was 6.40; at TbPARP (TbPARP IC50, […] nM TbPARP), 6.17; against TbPARP (TbPARP pIC50 ± SEM, 5 nM TbPARP), 6.17.
